In PMC11288129, “Diversely evolved xibalbin variants from remipede venom inhibit potassium channels and activate PKA-II and Erk1/2 signaling” (BMC Biology, 2024):
“Also recorded” adds a separate entry of the source. Marks after values point to notes of the source that are not given here. Positions of bridges follow the written chain, without caps; N, C: chain ends. No end group written: not given here.

Columns and labels:
[1] = test system: voltage-gated potassium channels (Kvs); assay: TEVC on panel of voltage-gated potassium channels; assay type: cell-based; conditions: 1 µM
Text: (§1) For the expression of Kv channels rat Kv1.1 (GenBank accession number: NM_173095 [88, 89]), rKv1.2 (NM_012970 [90, 91]), human Kv1.3 (NM_002232 [92, 93]), rKv1.4 (NM_012971 [94, 95]), rKv1.6 (NM_023954 [96, 97]), hKv2.1 (NM_004975 [98, 99]), hKv3.1 (NM_004976 [100, 101]), rKv4.2 (NM_031739 [102, 103]), hKv10.1 (NM_172362 [104, 105]), hERG1 [Kv11.1, (NM_000238 [106, 107])], and Shaker IR [from Drosophila melanogaster, (NM_167595 [108, 109])], Nav channels [rNav1.2 (NM_012647 [42, 110]), rNav1.4 (NM_013178 [111, 112]), hNav1.5 (NM_198056 [113, 114]), mNav1.6 (NM_001077499 [115, 116]), BgNav [from Blattella germanica, (DQ466887 [117, 118])] and the auxiliary subunits rβ1 (NM_001271045 [119, 120]), hβ1 (NM_001037 [121, 122]), and TipE [from D. melanogaster, (NM_079196 [109, 123])], and Cav channels hCav3.1 [124, 125], hCav3.2 [126, 127], and hCav3.3 [128, 129] in Xenopus oocytes, the linearized plasmids were transcribed using the T7 or SP6 mMESSAGEmMACHINE transcription kit (Ambion, Austin, TX, USA). […]
(§2) Whole-cell currents of oocytes were recorded 1 to 3 days after injection. […] The current–voltage (IV) relationships were determined by 100-ms step depolarizations between − 90 and + 40 mV, using 5 mV increments. […]

[2] = test system: rKv4.2; assay: TEVC inhibition, Kv4.2; assay type: cell-based, rat; design: unit not given here; conditions: 1 µM
Text: (§3) For the expression of Kv channels rat Kv1.1 (GenBank accession number: NM_173095 [88, 89]), rKv1.2 (NM_012970 [90, 91]), human Kv1.3 (NM_002232 [92, 93]), rKv1.4 (NM_012971 [94, 95]), rKv1.6 (NM_023954 [96, 97]), hKv2.1 (NM_004975 [98, 99]), hKv3.1 (NM_004976 [100, 101]), rKv4.2 (NM_031739 [102, 103]), hKv10.1 (NM_172362 [104, 105]), hERG1 [Kv11.1, (NM_000238 [106, 107])], and Shaker IR [from Drosophila melanogaster, (NM_167595 [108, 109])], Nav channels [rNav1.2 (NM_012647 [42, 110]), rNav1.4 (NM_013178 [111, 112]), hNav1.5 (NM_198056 [113, 114]), mNav1.6 (NM_001077499 [115, 116]), BgNav [from Blattella germanica, (DQ466887 [117, 118])] and the auxiliary subunits rβ1 (NM_001271045 [119, 120]), hβ1 (NM_001037 [121, 122]), and TipE [from D. melanogaster, (NM_079196 [109, 123])], and Cav channels hCav3.1 [124, 125], hCav3.2 [126, 127], and hCav3.3 [128, 129] in Xenopus oocytes, the linearized plasmids were transcribed using the T7 or SP6 mMESSAGEmMACHINE transcription kit (Ambion, Austin, TX, USA). Mature female animals were purchased from Nasco (Fort Atkinson, USA) and were housed in the Aquatic Facility (KU Leuven) in compliance with the regulations of the European Union (EU) concerning the welfare of laboratory animals as declared in Directive 2010/63/EU. The use of X. laevis oocytes was approved by the Animal Ethics Committee of the KU Leuven with the license number P186/2019. Stage V–VI oocytes were collected from anesthetized female X. laevis frog as previously described, with the frogs anesthetized by placement in 0.1% tricaine solution (amino benzoic acid ethyl ester; Merck, USA). Oocyte microinjection was performed using a microinjector (Drummond Scientifc®, USA), with a programmed cRNA injection volume of 4—50 nL, depending on the channel subtype. The oocytes were incubated in ND96 solution (96 mM NaCl, 2 mM KCl, 1.8 mM CaCl2, 2 mM MgCl2, and 5 mM HEPES, pH 7.4), supplemented with 50 mg/l gentamicin sulfate.
(§4) Electrophysiological measurements were performed at room temperature (18–22 °C) using the two-electrode voltage clamp (TEVC) technique. Data were obtained using a GeneClamp 500 amplifier (Axon Instruments, USA), and Clampex9 software (Axon Instruments), responsible for data acquisition and storage. Glass micropipettes were produced using glass capillaries (borosilicate WPI 1B120-6) and drawn in a WPI (World Precision Instruments, USA) manual stretcher. The bath and perfusion solutions were either the previously described ND96 (Nav and Kv channels) or calcium-free ND96 supplemented with 10 mM BaCl2 (Cav channels).
(§5) Whole-cell currents of oocytes were recorded 1 to 3 days after injection. Current and voltage electrodes were filled with 3 M KCl and their resistance was adjusted from 0.7 to 2.0 MΩ. Currents were sampled at 20 kHz (Nav channels) and 10 kHz (Kv and Cav channels) and filtered using a four-pole Bessel low-pass Bessel filter, at 1 kHz for sodium, and […] for potassium and calcium, except for the hERG ion channel, in which the currents were filtered at 1 kHz. Leak subtraction was performed using a -P/4 protocol. Kv1.x currents were evoked by 500 ms depolarizations to 0 mV followed by a 500-ms pulse to − 50 mV, from a holding potential of − 90 mV. Kv2.1, Kv3.1, and Kv4.2 currents were elicited by 500 ms pulses to + 20 mV from a holding potential of − 90 mV. Current traces of Kv10.1 were elicited by 2 s depolarization to 0 mV, from a holding potential of − 90 mV. Current traces of hERG1 channel were elicited by applying a + 40 mV prepulse for 2 s followed by a step of − 120 mV for 2 s. Sodium current traces were evoked by a 100 ms depolarization to 0 mV, from a holding potential of − 90 mV. The current–voltage (IV) relationships were determined by 100-ms step depolarizations between − 90 and + 40 mV, using 5 mV increments. […]

[3] = test system: rKv1.6; assay: TEVC inhibition, Kv1.6; assay type: cell-based, rat; conditions: 1 µM
Text: as §3, §4, §5

[4] = test system: rNav1.4; assay: TEVC current-voltage relationship (Vhalf), Nav1.4; assay type: cell-based, rat; design: Vhalf, toxin inactivation, Nav1.4 / Vhalf, toxin activation, Nav1.4: unit not given here; conditions: for Vhalf, toxin activation, Nav1.4 / Vhalf, toxin inactivation, Nav1.4: 1 µM
Text: as §3, §4, §5

[5] = test system: BgNav; assay: TEVC current-voltage relationship (Vhalf), BgNav; assay type: cell-based, Blattella germanica; design: Vhalf, toxin inactivation, BgNav / Vhalf, toxin activation, BgNav: unit not given here; conditions: for Vhalf, toxin activation, BgNav / Vhalf, toxin inactivation, BgNav: 1 µM
Text: as §3, §4, §5

[6] = test system: hERG1 (Kv11.1); assay: TEVC inhibition, Kv11.1 (hERG1); assay type: cell-based; conditions: human, Xenopus laevis oocytes expressing hERG1 (Kv11.1), pH 7.4, replicate 1
Text: as §1, §2

[7] = test system: hKv3.1; assay: TEVC inhibition, Kv3.1; assay type: cell-based, human; design: unit not given here; conditions: 1 µM
Text: as §3, §4, §5

[8] = test system: Shaker IR; assay: TEVC inhibition, Shaker IR; assay type: cell-based, Drosophila melanogaster; design: unit not given here; conditions: 1 µM
Text: as §3, §4, §5

[9] = test system: hCav3.2; assay: TEVC inhibition, Cav3.2; assay type: cell-based, human; design: unit not given here; conditions: 1 µM
Text: as §3, §4, §5

Sequence	inhibition of voltage-gated potassium channels [1]	Inhibition data, Kv4.2 ([2]; replicate 1)	Inhibition data, Kv4.2 ([2]; replicate 2)	Inhibition data, Kv4.2 ([2]; replicate 3)	Inhibition data, Kv4.2 ([2]; replicate 4)	Inhibition data, Kv1.6 ([3]; replicate 1)	Inhibition data, Kv1.6 ([3]; replicate 2)	Inhibition data, Kv1.6 ([3]; replicate 3)	Vhalf, toxin activation, Nav1.4 ([4]; replicate 1)	Vhalf, toxin inactivation, Nav1.4 ([4]; replicate 1)	Vhalf, toxin activation, Nav1.4 ([4]; replicate 2)	Vhalf, toxin inactivation, Nav1.4 ([4]; replicate 2)	Vhalf, toxin activation, Nav1.4 ([4]; replicate 3)	Vhalf, toxin inactivation, Nav1.4 ([4]; replicate 3)	Vhalf activation shift, BgNav ([5]; 1 µM versus control (ND96))	Vhalf, toxin activation, BgNav ([5]; replicate 1)	Vhalf, toxin inactivation, BgNav ([5]; replicate 1)	Vhalf, toxin activation, BgNav ([5]; replicate 2)	Vhalf, toxin inactivation, BgNav ([5]; replicate 2)	Vhalf, toxin activation, BgNav ([5]; replicate 3)	other results
KRSCIRRFGRCDHRPNDCCYNSSCRCNLWGSNCRCQRMGLFQKWGK (disulfide 4-19, 11-24, 18-35, 26-33) [xib13]	potent inhibition; also recorded: most significant inhibition rates	0.0	0.0	0.0	0.0	81.2	87.8	79.9	-16.1478	-45.0612	-15.8394	-52.747	-14.4257	-47.6866	7.7*** mV	-17.0858	-50.0173	-22.9798	-54.2542	-20.8319	Vhalf activation shift, Nav1.4 ([4]; 1 µM versus control (ND96)): 3.4 mV; Vhalf inactivation shift, BgNav ([5]; 1 µM versus control (ND96)): 0.2 mV; Vhalf, toxin inactivation, BgNav ([5]; replicate 3): -48.9373; Vhalf, toxin activation, BgNav ([5]; replicate 4): -18.4734; Vhalf, toxin inactivation, BgNav ([5]; replicate 4): -48.3513; inhibition at 1 µM [6]: 0%; Inhibition data, Kv3.1 ([7]; replicate 1): 0.0; Inhibition data, Kv3.1 ([7]; replicate 2): 0.0; Inhibition data, Kv3.1 ([7]; replicate 3): 0.0; Inhibition data, Kv3.1 ([7]; replicate 4): 0.0; Inhibition data, Shaker ([8]; replicate 1): 0.0; Inhibition data, Shaker ([8]; replicate 2): 0.0; Inhibition data, Shaker ([8]; replicate 3): 0.0; Inhibition data, Shaker ([8]; replicate 4): 0.0; Inhibition data, Cav3.2 ([9]; replicate 1): 0.0; Inhibition data, Cav3.2 ([9]; replicate 2): 0.0; Inhibition data, Cav3.2 ([9]; replicate 3): 0.0; Inhibition data, Cav3.2 ([9]; replicate 4): 0.0
RLFCIRHHKYCGHRPKRCCSGLFCRCNTFGTNCRCQSKGALGKLI (disulfide 4-19, 11-24, 18-35, 26-33) [xib1]	potent inhibition	0.0	0.0	0.0	0.0	80.8	59.7	81.8	-19.1826	-47.3987	-12.5775	-44.7262	-17.1419	-46.0496	2.1 mV	-20.8516	-45.0763	-24.1418	-46.3574	-27.3818	Inhibition data, Kv1.6 ([3]; replicate 4): 80.2; Vhalf, toxin inactivation, BgNav ([5]; replicate 3): -51.0148; Vhalf, toxin activation, BgNav ([5]; replicate 4): -26.78; inhibition at 1 µM [6]: 0%; Inhibition data, Kv3.1 ([7]; replicate 1): 0.0; Inhibition data, Kv3.1 ([7]; replicate 2): 0.0; Inhibition data, Kv3.1 ([7]; replicate 3): 0.0; Inhibition data, Kv3.1 ([7]; replicate 4): 0.0; Inhibition data, Shaker ([8]; replicate 1): 0.0; Inhibition data, Shaker ([8]; replicate 2): 0.0; Inhibition data, Shaker ([8]; replicate 3): 0.0; Inhibition data, Shaker ([8]; replicate 4): 0.0; Inhibition data, Cav3.2 ([9]; replicate 1): 0.0; Inhibition data, Cav3.2 ([9]; replicate 2): 0.0; Inhibition data, Cav3.2 ([9]; replicate 3): 0.0; Inhibition data, Cav3.2 ([9]; replicate 4): 0.0
